Data reported in patent US6989158B1, “Gold-containing chemotherapeutic agents” (The Curators of the University of Missouri, priority 1999, dated 2006).

How the values were obtained:
[1] = tested on: interperitoneal P388 leukemia; conditions: in vivo; cited from earlier work
[2] = Deaths of tumor bearing mice at larger doses; assay type: in vivo; conditions: doses significantly larger than in the table (20–25 μg/kg)
[3] = Side effects in mice models; assay type: in vivo; conditions: preliminary findings
HCT-15 cells = experiment: Histogram (cell cycle) studies; assay type: cell-based; conditions: 200 or 40 μg/ml, two days incubation
Method: Histogram studies were carried out using HCT-15 cells. In the enclosed figure that summarize histogram results the cells are numbered as follows: HCT-80 is the control; HCT-81 refers to a sample with 200 μg/ml of the gold compound; HCT-82 refers to a sample with 40 μg/ml of gold compound.
HCT-15 cells were incubated in 5% CO2 incubator for two days. Then the cells were harvested and analyzed using fluorescent techniques. […] This finding is in sharp contrast to he cytotoxic side effects of cisplatin which is known to cause disassociation of many phases. Additionally, most agents which are cytotoxic, block S or M+G2 phase after culturing for two days. The mode of cell suppression via G1 phase elongation, as observed for the gold compound, therefore functions differently.

Meth/A cells = experiment: In vivo study, survival of Meth/A tumor bearing mice; set-up: species or system Balb/C mice
[4] = tested on: cells derived from human colon carcinoma; experiment: in vitro tumor growth suppression, cells derived from human colon carcinoma; assay type: cell-based; conditions: specific human cancer cell lines
From the text: When the non-radioactive analogue of the gold complex of THP [(Au(THP)4)]

peritoneal cancer cells = conditions: in vivo; cited from earlier work
solid tumor models = conditions: in vivo; cited from earlier work
[5] = in vivo; cited from earlier work

SMILES: CC[PH](CC)(CC)[Au][S][C@@H]1O[C@H](COC(C)=O)[C@@H](OC(C)=O)[C@H](OC(C)=O)[C@H]1OC(C)=O [Auranofin, (2,3,4,6-tetra-O-aceytl-1-thio-β-D-glucopyranosato-S)-(triethylphosphine) gold(I)]
- activity against interperitoneal P388 leukemia [1]: active

SMILES: N.N.[Cl][Pt][Cl] [Cisplatin, cisplatin]
- deaths of tumor bearing mice [2]: resulted in the death of animals

SMILES: OCP(CO)CO.OCP(CO)CO.OCP(CO)CO.OCP(CO)CO.[Au+].[Cl-] [[Au(THP)4]Cl]
- deaths of tumor bearing mice [2]: did not result in deaths of tumor bearing mice
- toxic side effects [3]: no toxic cardiovascular or naphrotoxic side effects
- effect on G1 phase of the cell cycle (HCT-15 cells): elongates G1 phase
- survival of tumor bearing mice (Meth/A cells): remarkable survival of tumor bearing mice
- tumor cell suppression [4]: remarkable activity in suppressing tumor growth

SMILES: [Au+].[Cl-].c1ccc(P(CCP(c2ccccc2)c2ccccc2)c2ccccc2)cc1.c1ccc(P(CCP(c2ccccc2)c2ccccc2)c2ccccc2)cc1 [[Au(dppe)2]Cl]
- activity against peritoneal cancer cells (peritoneal cancer cells): marked activity
- activity against solid tumor models (solid tumor models): only slightly active
- toxicity in preclinical toxicology studies [5]: cardiotoxicity
